In ChEMBL document CHEMBL4507289, “Data for DCP probe GSM1” (2021):
Active and inactive are the calls of the source. The calls are words filed in the database; no cut-off is given here.

Key:
[1] = molecular target: Calcium/calmodulin-dependent protein kinase kinase 1 (Homo sapiens) (UniProt Q8N5S9); settings: Compound concentration 1000.0 nM
[2] = molecular target: Ribosomal protein S6 kinase alpha-2 (Homo sapiens) (UniProt Q15349); settings: Compound concentration 1000.0 nM
[3] = molecular target: Alpha-1A adrenergic receptor (Homo sapiens, UniProt P35348); test: GPCRScan assay: inhibition of Alpha1A; design: radioligand conc. used [nm] 0.2 - 1.0, parental cells stable HEK
[4] = molecular target: Ephrin type-B receptor 2 (Homo sapiens) (UniProt P29323); settings: Compound concentration 1000.0 nM
[5] = molecular target: Serine/threonine-protein kinase DCLK1 (Homo sapiens) (UniProt O15075); settings: Compound concentration 1000.0 nM
[6] = molecular target: Serine/threonine-protein kinase TAO2 (Homo sapiens) (UniProt Q9UL54); settings: Compound concentration 1000.0 nM
[7] = molecular target: D(2) dopamine receptor (Homo sapiens) (UniProt P14416); settings: Compound concentration 10.0 uM
[8] = molecular target: 5-hydroxytryptamine receptor 1D (Homo sapiens) (UniProt P28221); settings: Compound concentration 10.0 uM
[9] = molecular target: Alpha-1B adrenergic receptor (Homo sapiens, UniProt P35368); test: GPCRScan assay: inhibition of Alpha1B; design: radioligand conc. used [nm] 0.3 – 1.0, parental cells stable HEK
[10] = molecular target: Serine/threonine-protein kinase SIK2 (Homo sapiens) (UniProt Q9H0K1); settings: Compound concentration 1000.0 nM
[11] = molecular target: Calcium/calmodulin-dependent protein kinase type II subunit gamma (Homo sapiens) (UniProt Q13555); settings: Compound concentration 1000.0 nM
[12] = molecular target: Eukaryotic translation initiation factor 2-alpha kinase 1 (Homo sapiens) (UniProt Q9BQI3); settings: Compound concentration 1000.0 nM
[13] = GPCRScan assay: inhibition of GABA/PBR; design: species or system Rattus norvegicus; radioligand conc. used [nm] 0.3 – 2.0, parental cells brain tissue
[14] = molecular target: Receptor-type tyrosine-protein kinase FLT3 (Homo sapiens) (UniProt P36888); settings: Compound concentration 1000.0 nM
[15] = molecular target: Dual specificity protein kinase CLK2 (Homo sapiens) (UniProt P49760); settings: Compound concentration 1000.0 nM
[16] = molecular target: Ribosomal protein S6 kinase alpha-3 (Homo sapiens) (UniProt P51812); settings: Compound concentration 1000.0 nM
D(4) dopamine receptor = D(4) dopamine receptor (Homo sapiens, UniProt P21917); test: GPCRScan assay: inhibition of D4; design: radioligand conc. used [nm] 0.6 – 1.7, parental cells Stable HEK
[17] = molecular target: Serine/threonine-protein kinase PAK 1 (Homo sapiens) (UniProt Q13153); settings: Compound concentration 1000.0 nM
[18] = molecular target: Activin receptor type-1-like (Homo sapiens) (UniProt P37023); settings: Compound concentration 1000.0 nM
[19] = molecular target: Cyclin-dependent kinase 5 (Homo sapiens) (UniProt Q00535); settings: Compound concentration 1000.0 nM
[20] = molecular target: 5-hydroxytryptamine receptor 1E (Homo sapiens) (UniProt P28566); settings: Compound concentration 10.0 uM
[21] = molecular target: Muscarinic acetylcholine receptor M2 (Homo sapiens) (UniProt P08172); settings: Compound concentration 10.0 uM
[22] = molecular target: Muscarinic acetylcholine receptor M1 (Homo sapiens) (UniProt P11229); settings: Compound concentration 10.0 uM
[23] = molecular target: T1, Sodium-dependent dopamine transporter (Homo sapiens, UniProt Q01959); test: Dopamine-uptake assay
[24] = molecular target: Alpha-1D adrenergic receptor (Homo sapiens) (UniProt P25100); settings: Compound concentration 10.0 uM
[25] = molecular target: Alpha-1B adrenergic receptor (Homo sapiens) (UniProt P35368); settings: Compound concentration 10.0 uM
[26] = molecular target: T1, Sodium-dependent dopamine transporter; test: GPCRScan assay: inhibition of DAT; design: radioligand conc. used [nm] 3.6 – 16.0, parental cells stable HEK
Histamine H2 receptor = Histamine H2 receptor (Homo sapiens, UniProt P25021); test: GPCRScan assay: inhibition of H2; design: radioligand conc. used [nm] 0.02 – 0.05, parental cells Stable HEK
[27] = molecular target: Alpha-1A adrenergic receptor (Homo sapiens) (UniProt P35348); settings: Compound concentration 10.0 uM
[28] = molecular target: Beta-2 adrenergic receptor (Homo sapiens) (UniProt P07550); settings: Compound concentration 10.0 uM
[29] = molecular target: Sodium-dependent noradrenaline transporter (Homo sapiens, UniProt P23975); test: GPCRScan assay: inhibition of NET; design: radioligand conc. used [nm] 1.3 – 5.0, parental cells stable HEK
[30] = molecular target: Beta-3 adrenergic receptor (Homo sapiens) (UniProt P13945); settings: Compound concentration 10.0 uM
[31] = molecular target: Sodium-dependent serotonin transporter (Homo sapiens, UniProt P31645); test: Serotonin-uptake assay

T1 sequence (Q01959 whole entry): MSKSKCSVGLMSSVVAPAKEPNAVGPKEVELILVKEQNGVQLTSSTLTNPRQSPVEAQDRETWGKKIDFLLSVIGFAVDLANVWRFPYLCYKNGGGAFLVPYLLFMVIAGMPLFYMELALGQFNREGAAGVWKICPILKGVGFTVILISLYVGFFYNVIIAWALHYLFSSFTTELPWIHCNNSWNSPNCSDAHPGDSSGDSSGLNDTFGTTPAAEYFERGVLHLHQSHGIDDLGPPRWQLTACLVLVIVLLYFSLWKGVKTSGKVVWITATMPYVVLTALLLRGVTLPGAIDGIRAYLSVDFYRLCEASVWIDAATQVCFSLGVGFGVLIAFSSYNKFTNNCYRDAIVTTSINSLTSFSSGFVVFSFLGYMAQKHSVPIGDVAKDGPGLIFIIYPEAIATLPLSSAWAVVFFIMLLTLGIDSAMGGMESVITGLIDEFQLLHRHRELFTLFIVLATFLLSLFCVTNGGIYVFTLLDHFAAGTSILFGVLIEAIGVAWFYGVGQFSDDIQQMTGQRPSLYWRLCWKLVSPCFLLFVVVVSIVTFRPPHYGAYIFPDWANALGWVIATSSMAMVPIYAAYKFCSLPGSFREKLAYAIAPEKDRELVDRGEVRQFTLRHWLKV
Chain of Calcium/calmodulin-dependent protein kinase type II subunit gamma (Homo sapiens) (Q13555 whole entry): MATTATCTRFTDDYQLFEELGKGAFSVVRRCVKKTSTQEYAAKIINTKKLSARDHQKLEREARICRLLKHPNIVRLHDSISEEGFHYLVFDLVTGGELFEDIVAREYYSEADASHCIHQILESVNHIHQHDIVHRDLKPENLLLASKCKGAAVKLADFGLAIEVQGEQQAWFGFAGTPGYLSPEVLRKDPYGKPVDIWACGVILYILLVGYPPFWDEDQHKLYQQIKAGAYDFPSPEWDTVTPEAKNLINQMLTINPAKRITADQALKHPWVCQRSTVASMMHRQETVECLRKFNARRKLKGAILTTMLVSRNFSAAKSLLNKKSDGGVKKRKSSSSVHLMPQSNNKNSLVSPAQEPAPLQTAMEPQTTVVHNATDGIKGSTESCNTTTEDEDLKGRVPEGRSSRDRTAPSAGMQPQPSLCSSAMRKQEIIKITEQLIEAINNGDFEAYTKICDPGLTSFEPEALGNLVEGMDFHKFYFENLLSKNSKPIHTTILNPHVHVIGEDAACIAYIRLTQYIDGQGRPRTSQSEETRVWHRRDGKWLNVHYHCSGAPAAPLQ
Chain of Calcium/calmodulin-dependent protein kinase kinase 1 (Homo sapiens) (Q8N5S9 whole entry, looked up): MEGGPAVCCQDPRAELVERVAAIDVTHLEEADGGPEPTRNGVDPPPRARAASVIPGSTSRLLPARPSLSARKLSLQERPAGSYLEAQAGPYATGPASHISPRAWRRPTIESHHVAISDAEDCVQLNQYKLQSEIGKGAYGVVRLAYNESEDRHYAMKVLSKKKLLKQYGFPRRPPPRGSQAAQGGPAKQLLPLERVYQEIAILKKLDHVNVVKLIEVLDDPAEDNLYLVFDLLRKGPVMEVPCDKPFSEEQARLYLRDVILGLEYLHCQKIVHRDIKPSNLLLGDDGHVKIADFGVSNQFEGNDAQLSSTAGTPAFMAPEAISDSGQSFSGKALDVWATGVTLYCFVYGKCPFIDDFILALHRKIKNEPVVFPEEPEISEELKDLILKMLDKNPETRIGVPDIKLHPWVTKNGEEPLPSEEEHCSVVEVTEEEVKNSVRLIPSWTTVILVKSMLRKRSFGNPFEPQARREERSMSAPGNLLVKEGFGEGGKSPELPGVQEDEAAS
Chain of Activin receptor type-1-like (Homo sapiens) (P37023 whole entry): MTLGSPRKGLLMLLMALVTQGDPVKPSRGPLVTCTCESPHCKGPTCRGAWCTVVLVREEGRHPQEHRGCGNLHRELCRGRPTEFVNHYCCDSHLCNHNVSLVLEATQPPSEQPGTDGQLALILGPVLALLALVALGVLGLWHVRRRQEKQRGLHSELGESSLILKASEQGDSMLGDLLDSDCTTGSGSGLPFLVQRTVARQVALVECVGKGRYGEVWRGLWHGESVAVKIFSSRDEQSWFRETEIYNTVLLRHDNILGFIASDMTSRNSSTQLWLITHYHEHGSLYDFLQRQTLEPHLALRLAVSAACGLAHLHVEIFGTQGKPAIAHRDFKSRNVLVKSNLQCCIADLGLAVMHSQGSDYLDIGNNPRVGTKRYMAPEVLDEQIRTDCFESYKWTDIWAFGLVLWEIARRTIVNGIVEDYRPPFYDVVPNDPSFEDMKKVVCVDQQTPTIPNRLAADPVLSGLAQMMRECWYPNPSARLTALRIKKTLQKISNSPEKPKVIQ
Chain of Receptor-type tyrosine-protein kinase FLT3 (Homo sapiens) (P36888 whole entry): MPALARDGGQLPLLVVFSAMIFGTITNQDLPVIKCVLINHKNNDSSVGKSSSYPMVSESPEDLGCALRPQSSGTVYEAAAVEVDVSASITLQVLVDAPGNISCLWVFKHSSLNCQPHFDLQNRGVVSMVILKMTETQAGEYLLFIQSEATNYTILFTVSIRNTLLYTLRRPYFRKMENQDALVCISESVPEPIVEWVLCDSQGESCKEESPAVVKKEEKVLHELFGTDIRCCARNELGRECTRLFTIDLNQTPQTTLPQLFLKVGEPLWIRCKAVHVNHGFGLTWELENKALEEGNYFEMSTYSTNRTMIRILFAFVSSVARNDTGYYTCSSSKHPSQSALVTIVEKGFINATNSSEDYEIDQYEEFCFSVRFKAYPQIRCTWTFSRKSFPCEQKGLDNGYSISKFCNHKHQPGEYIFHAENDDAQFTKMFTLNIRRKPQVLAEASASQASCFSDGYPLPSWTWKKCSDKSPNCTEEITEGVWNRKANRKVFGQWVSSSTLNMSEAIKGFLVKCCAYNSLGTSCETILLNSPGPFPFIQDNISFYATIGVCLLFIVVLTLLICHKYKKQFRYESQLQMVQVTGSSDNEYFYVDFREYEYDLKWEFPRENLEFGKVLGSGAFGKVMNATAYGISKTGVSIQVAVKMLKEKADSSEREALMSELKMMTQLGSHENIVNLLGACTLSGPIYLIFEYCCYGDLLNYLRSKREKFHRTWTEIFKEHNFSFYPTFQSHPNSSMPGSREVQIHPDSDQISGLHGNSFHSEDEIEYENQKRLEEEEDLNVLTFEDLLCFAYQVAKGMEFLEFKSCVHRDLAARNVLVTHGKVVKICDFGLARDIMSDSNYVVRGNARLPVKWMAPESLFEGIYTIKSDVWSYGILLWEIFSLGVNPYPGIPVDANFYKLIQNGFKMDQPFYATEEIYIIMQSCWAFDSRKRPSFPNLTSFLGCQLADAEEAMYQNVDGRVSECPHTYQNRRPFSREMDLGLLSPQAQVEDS
Chain of Dual specificity protein kinase CLK2 (Homo sapiens) (P49760 whole entry, looked up): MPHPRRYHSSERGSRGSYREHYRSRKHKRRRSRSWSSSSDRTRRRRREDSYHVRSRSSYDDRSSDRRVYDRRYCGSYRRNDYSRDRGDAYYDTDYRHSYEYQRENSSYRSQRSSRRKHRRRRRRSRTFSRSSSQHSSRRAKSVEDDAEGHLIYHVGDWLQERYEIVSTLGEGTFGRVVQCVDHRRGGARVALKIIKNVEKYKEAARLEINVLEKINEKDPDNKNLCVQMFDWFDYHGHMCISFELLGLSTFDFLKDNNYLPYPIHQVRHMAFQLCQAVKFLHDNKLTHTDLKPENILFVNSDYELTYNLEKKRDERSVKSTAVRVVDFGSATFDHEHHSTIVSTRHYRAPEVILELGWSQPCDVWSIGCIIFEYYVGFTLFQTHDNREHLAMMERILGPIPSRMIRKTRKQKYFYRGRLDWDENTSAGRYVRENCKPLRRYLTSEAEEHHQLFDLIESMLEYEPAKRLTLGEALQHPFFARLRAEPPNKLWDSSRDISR
Chain of Cyclin-dependent kinase 5 (Homo sapiens) (Q00535 whole entry, looked up): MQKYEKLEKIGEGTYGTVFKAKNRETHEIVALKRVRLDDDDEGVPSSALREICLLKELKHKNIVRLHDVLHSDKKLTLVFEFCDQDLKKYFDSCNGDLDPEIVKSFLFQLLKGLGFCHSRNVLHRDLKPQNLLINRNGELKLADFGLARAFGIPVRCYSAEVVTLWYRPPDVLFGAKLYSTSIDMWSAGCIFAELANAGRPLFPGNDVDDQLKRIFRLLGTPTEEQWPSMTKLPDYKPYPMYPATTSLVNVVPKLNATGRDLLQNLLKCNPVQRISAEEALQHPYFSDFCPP
Chain of Serine/threonine-protein kinase SIK2 (Homo sapiens) (Q9H0K1 whole entry, looked up): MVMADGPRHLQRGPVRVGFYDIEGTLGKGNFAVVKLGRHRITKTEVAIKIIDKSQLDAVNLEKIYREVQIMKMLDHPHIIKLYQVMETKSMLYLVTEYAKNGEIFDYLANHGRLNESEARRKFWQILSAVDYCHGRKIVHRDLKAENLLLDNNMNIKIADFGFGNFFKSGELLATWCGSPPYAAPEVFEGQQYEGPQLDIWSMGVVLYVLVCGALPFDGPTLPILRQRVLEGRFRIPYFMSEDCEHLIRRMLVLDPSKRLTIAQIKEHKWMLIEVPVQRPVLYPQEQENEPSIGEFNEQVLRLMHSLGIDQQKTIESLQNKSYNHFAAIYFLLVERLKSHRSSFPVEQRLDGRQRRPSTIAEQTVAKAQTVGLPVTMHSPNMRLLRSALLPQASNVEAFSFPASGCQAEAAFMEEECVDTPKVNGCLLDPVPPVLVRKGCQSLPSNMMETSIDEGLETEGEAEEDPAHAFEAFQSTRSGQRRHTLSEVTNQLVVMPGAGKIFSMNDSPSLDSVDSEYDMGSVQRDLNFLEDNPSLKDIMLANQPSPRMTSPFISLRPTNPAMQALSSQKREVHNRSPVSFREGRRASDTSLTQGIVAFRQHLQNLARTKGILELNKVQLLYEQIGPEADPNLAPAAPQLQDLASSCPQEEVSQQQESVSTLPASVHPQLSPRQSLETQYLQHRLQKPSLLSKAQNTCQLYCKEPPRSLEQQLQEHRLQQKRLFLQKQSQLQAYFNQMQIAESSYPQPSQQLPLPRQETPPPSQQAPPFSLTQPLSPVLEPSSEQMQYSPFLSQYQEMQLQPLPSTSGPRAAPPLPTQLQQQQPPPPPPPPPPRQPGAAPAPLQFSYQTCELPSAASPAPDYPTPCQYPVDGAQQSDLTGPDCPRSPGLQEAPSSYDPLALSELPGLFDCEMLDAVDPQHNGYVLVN

SMILES | residual activity [1] [%] | residual activity [2] [%] | residual activity [4] [%] | residual activity [5] [%] | residual activity [6] [%] | inhibition [7] [%] | residual activity [10] [%] | residual activity [11] [%] | residual activity [12] [%] | residual activity [14] [%] | residual activity [15] [%] | residual activity [16] [%] | residual activity [17] [%] | residual activity [18] [%] | residual activity [19] [%] | further results
COc1cc(-c2cn([C@H]3CCc4ccccc4N(CC(F)(F)F)C3=O)nn2)ccc1-n1ccc(C)n1 | 100 | 99 | 100 | 100 | 100 | 7.85 | 100 | 100 | 93 | 89 | 100 | 97 | 100 | 100 | 100 | Ki [3]: 1390 nM; inhibition [8]: 11.3%; Ki [9]: 10000 nM; Ki [13]: 5070 nM; pKi [13]: 5.36; Ki (D(4) dopamine receptor): 4950 nM
COc1cc(-c2cn([C@H]3CCc4c(F)cccc4N(CC(F)(F)F)C3=O)nn2)ccc1-n1cnc(C)c1 | 100 | 100 | 100 | 100 | 100 | 31.2 | 100 | 100 | 100 | 100 | 100 | 100 | 93 | 100 | 100 | inhibition [20]: -8.76%; inhibition [21]: 14.4%; inhibition [22]: 8.88%; IC50 [23]: 536 nM (active); inhibition [24]: 2.11%; inhibition [25]: 19.9%; Ki ([26]; read-out: Ki): 191 nM; Ki ([26]; read-out: pKi (converted)): 200 nM; Ki (Histamine H2 receptor): 975 nM; inhibition [27]: 14.1%; inhibition [28]: -5.61%; Ki [29]: 808 nM; inhibition [30]: 15.8%; IC50 [31]: 13 nM (active)
